What was measured:
[1] = 100 kPa, Liquid; for viscosity: Concentric cylinders viscometry
[2] = xn = mol fraction of the nth substance listed; settings: 100 kPa, Liquid, x1 = 1; for viscosity: Concentric cylinders viscometry; for mass density: Vibrating tube method

COCOCOCOCOC [2,4,6,8,10-pentaoxaundecane]
[1]
Settings	viscosity [mPa·s]
288.15 K	2.207
293.15 K	2.015
298.15 K	1.848
303.15 K	1.703
308.15 K	1.576
313.15 K	1.464

mass density [kg/m3], [1]
Settings	288.15 K	293.15 K	298.15 K	303.15 K	308.15 K	313.15 K
Buoyancy - hydrostatic balance	–	–	1067.8	–	–	–
Vibrating tube method	1078.8	1073.3	1068.2	1063.4	1059.1	1055.2

COCOCOCOC [2,4,6,8-tetraoxanonane]
[1]
Settings	viscosity [mPa·s]
288.15 K	1.259
293.15 K	1.166
298.15 K	1.084
303.15 K	1.028
308.15 K	0.9921
313.15 K	0.9521

mass density [kg/m3], [1]
Settings	288.15 K	293.15 K	298.15 K	303.15 K	308.15 K	313.15 K
Buoyancy - hydrostatic balance	–	–	1023.1	–	–	–
Vibrating tube method	1037.5	1030.2	1023.4	1016.6	1011	1005

COCOCOCOC [2,4,6,8-tetraoxanonane] + COCOCOCOCOC
[2]
Settings	mass density [kg/m3]	viscosity [mPa·s]
288.15 K	1037.5	1.259
293.15 K	1030.2	1.166
298.15 K	1023.4	1.084
303.15 K	1016.6	1.028
308.15 K	1011	0.9921
313.15 K	1005	0.9521

COCOCOC [2,4,6-trioxaheptane]
[1]
Settings	viscosity [mPa·s]
288.15 K	0.9255
293.15 K	0.9152
298.15 K	0.9028
303.15 K	0.8885
308.15 K	0.8726
313.15 K	0.8554

mass density [kg/m3], [1]
Settings	288.15 K	293.15 K	298.15 K	303.15 K	308.15 K	313.15 K
Buoyancy - hydrostatic balance	–	–	989.2	–	–	–
Vibrating tube method	999.4	995.3	989.9	984.3	978.8	974.2

COCOCOC [2,4,6-trioxaheptane] + COCOCOCOC
[2]
Settings	mass density [kg/m3]	viscosity [mPa·s]
288.15 K	999.4	0.9255
293.15 K	995.3	0.9152
298.15 K	989.9	0.9028
303.15 K	984.3	0.8885
308.15 K	978.8	0.8726
313.15 K	974.2	0.8554

COCOCOC [2,4,6-trioxaheptane] + COCOCOCOCOC
[2]
Settings	mass density [kg/m3]	viscosity [mPa·s]
288.15 K	999.4	0.9255
293.15 K	995.3	0.9152
298.15 K	989.9	0.9028
303.15 K	984.3	0.8885
308.15 K	978.8	0.8726
313.15 K	974.2	0.8554
